The source of these data is PubChem BioAssay AID1963827 (Molecular Pharmacology Branch, DTP, NCI, 2024).

Several values for one entry are separate records, joined by “and”; a condition that tells them apart may be missing. Equal entries are not always repeated.

In this assay the test system is 994946-033-R-J1-PDC complex spheroid viability. Briefly: Anticancer human tumor 994946-033-R-J1-PDC patient-derived melanoma cell line growth inhibition [POLQ]. As to conditions: for viability, T/C: stronger effect = lower value. On the procedure:
Multicellular complex tumor spheroid response to Polymerase (POL) inhibitors (novobiocin, ART-558, RP6685) in combination with a variety of drugs and investigational agents in selected tumor cell lines
The POL inhibitors (novobiocin, ART-558, and RP6685) were evaluated both individually and in combination with standard of care and investigational anticancer small molecules within a complex spheroid model of solid tumors. . Complex spheroids include a stromal component modeled by human endothelial cells (HUVEC) and fibroblasts modeled by human mesenchymal stem cells (MSCs). The concentration ranges selected for each drug and investigational agent were based upon clinically achievable concentrations if the clinical Cmax of the agent was known.
Compounds. The drugs and investigational agents: novobiocin (NSC847541), ART-558 (NSC835418), RP-6685 (NSC848927), peposertib (NSC802822), ceralasertib (NSC780249), elimusertib (NSC800525), camonsertib (NSC841442), AZD-1390 (NSC803789), olaparib (NSC753686), talazoparib (NSC767125), rucaparib (NSC756644), sotorasib (NSC818433), MRTX-1133 (NSC836407), SN-38 (NSC673596), topotecan (NSC609699), epotoside (NSC141540), doxorubicin (NSC123127), gemcitabine (NSC613327), 5-fluorouracil (NSC19893), paclitaxel (NSC125973), vemurafenib (NSC761431), MSA-2 (NSC828583), SN-011 (NSC837082), adavosertib (NSC754352), prexasertib (NSC758257), carboplatin (NSC241240) and oxaliplatin (NSC266046), were obtained from the National Cancer Institute (NCI) Developmental Therapeutics Program Chemical Repository (21). The FDA-approved anticancer drug set is available from the Developmental Therapeutics Program at https://dtp.cancer.gov/organization/dscb/obtaining/. […] The stock solutions were prepared in dimethyl sulfoxide (DMSO, Sigma-Aldrich, St. Louis, MO, cat. D2650), except for the platinum compounds which were prepared in saline (Quality Biological, Gaithersburg, MD, cat. 114-055-101), at 800-fold the tested concentration and stored at -70 degrees C prior to their use. All drugs and investigational agents were tested over a range starting from a high concentration at or near the clinical Cmax and decreasing in half-log increments. If the clinical Cmax for an agent had not been determined, the highest concentration tested was 10 microM, except for SN-38, which was tested at a high concentration of 1 microM.
Cell Culture. All cells were maintained in an incubator at 37 degrees C and 5% CO2 with 95% humidity. The PDC lines were cultured according to standard operating procedures established by the NCI PDMR (https://pdmr.cancer.gov). Table 3 of the manuscript, lists the cell lines along with the number of the three cell types plated to form the mct-spheroids and media for tumor cell growth. After thawing, all PDC lines, except 997537-175-T-J1-PDC and 415267-285-R-J2-PDC, were cultured in Matrigel-coated flasks prepared with a working solution of 1X Ham's F-12 nutrient mix, without supplementation (Thermo Fisher Scientific, cat. 11765054), 100 U/mL penicillin-streptomycin (Thermo Fisher Scientific, cat. 15140122), and 2.5% Matrigel (Corning Inc., Corning, NY, cat. 354248) for the first three passages. The two PDC lines 997537-175-T-J1-PDC and 415267-285-R-J2-PDC were cultured on uncoated flasks. The 857933-349-R-J2-PDC line was cultured in 6C/Colon 1B media containing advanced DMEM/F-12 (Thermo Fisher Scientific, cat. 12634028), 10 mM HEPES (Thermo Fisher Scientific, cat. 15630080), 1X GlutaMAX supplement (Thermo Fisher Scientific, cat. 35050061), 0.1 mg/mL primocin (InvivoGen, San Diego, CA, cat. ant-pm-2), 10% defined fetal bovine serum, heat inactivated (HyClone Laboratories Inc., Logan, UT, cat. SH30070.03HI), 50% L-WRN conditioned media (ATCC, cat. CRL-3276), 1.25 mM N-Acetyl-L-cysteine (Sigma-Aldrich, cat. A9165), 10 mM nicotinamide (Sigma-Aldrich, cat. N0636), 1X B-27 supplement (Thermo Fisher Scientific, cat. 17504044), 1X N-2 supplement (Thermo Fisher Scientific, cat. […]

Where [1] appears, read: compound alone, run of 10/31/2023.
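Note: spheroids exposed to drugs for 7 days.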
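Throughout, for viability, T/C: 100% = DMSO vehicle treated spheroids.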

With `CCc1c2c(nc3ccc(O)cc13)-c1cc3c(c(=O)n1C2)COC(=O)[C@]3(O)CC`, the viability, T/C was 17% and 30.3% and 19.5% (compound 0.00316 µM); 6.95% and 12.2% and 10.6% (compound 0.01 µM); 5.85% and 6.99% and 4.96% (compound 0.0316 µM); 3.9% and 5.58% and 5.13% (compound 0.1 µM); 3.05% and 4.94% and 3.67% (compound 0.316 µM); 1.76% and 2.96% and 1.2% (compound 1 µM). In addition, the IC50 (curve of compound) is under 0.00316 µM.

`COC1C(OC(N)=O)C(O)C(Oc2ccc3c(O)c(NC(=O)c4ccc(O)c(CC=C(C)C)c4)c(=O)oc3c2C)OC1(C)C` (configuration not stated): the IC50 under setting [1] is over 10 µM.

For `CC1COCCN1c1cc(C2(O)CC3CCC(C2)O3)c2cnn(-c3ccn[nH]3)c2n1` (configuration not stated), the viability, T/C (compound 0.0316 µM) was 38.3% and 52.8% and 44.6%; the viability, T/C (compound 0.1 µM) was 16.8% and 26.7% and 40.6%; the viability, T/C (compound 0.316 µM) is 18.2% and 26.2% and 20%; the viability, T/C (compound 1 µM) was 23.1% and 20.1% and 17.9%; the viability, T/C (compound 3.16 µM) is 9.3% and 14.8% and 12%; the viability, T/C (compound 10 µM) was 6.01% and 4.54% and 7.55%. The IC50 (curve of compound) was under 0.0316 µM.

`Cc1cccc(N(C)C(=O)C2C(O)CCN2c2nc(C)cc(C(F)(F)F)c2C#N)c1` (configuration not stated): the viability, T/C (compound 0.1 µM) is 93.6% [middle of 13 runs]. Besides, the IC50 was over 10 µM under setting [1] and over 10 µM (compound alone, run of 11/06/2023).

In the case of `CNCc1ccc(-c2[nH]c3cc(F)cc4c3c2CCNC4=O)cc1`, the viability, T/C is 90.6% and 92.2% and 105% (compound 0.0316 µM); 111% and 79.6% and 87% (compound 0.1 µM); 112% and 90% and 90.3% (compound 0.316 µM); 107% and 83.3% and 103% (compound 1 µM); 110% and 98.3% and 105% (compound 3.16 µM); 93.4% and 76.8% and 66.9% (compound 10 µM). The IC50 (curve of compound) was over 10 µM.

Consider `CC1COCCN1c1cc(C2(S(C)(=N)=O)CC2)nc(-c2ccnc3[nH]ccc23)n1` (configuration not stated) + Nc1ccc(C#CCN(C(=O)Cc2ncc(C(F)(F)F)cc2C(F)(F)F)c2ccc(F)cc2)nn1, for which the IC50 by setting is: (curve of first compound, second compound 0.0316 µM) 2.25 µM; (curve of first compound, second compound 0.1 µM) 5.7 µM; (curve of first compound, second compound 0.316 µM) 2 µM; (curve of first compound, second compound 1 µM) 2.54 µM; (curve of first compound, second compound 3.16 µM) 5.12 µM; (curve of first compound, second compound 10 µM) over 10 µM. For the same molecule, the viability, T/C by setting is: (second compound 0.0316 µM, first compound 0.0316 µM) 91.6%; (second compound 0.0316 µM, first compound 0.1 µM) 93%; (second compound 0.0316 µM, first compound 0.316 µM) 76.2%; (second compound 0.0316 µM, first compound 1 µM) 74.6%; (second compound 0.0316 µM, first compound 3.16 µM) 37.4%; (second compound 0.0316 µM, first compound 10 µM) 42.1%. In addition, the viability, T/C was 127% (second compound 0.1 µM, first compound 0.0316 µM); 135% (second compound 0.1 µM, first compound 0.1 µM); 95% (second compound 0.1 µM, first compound 0.316 µM); 72.4% (second compound 0.1 µM, first compound 1 µM); 68.5% (second compound 0.1 µM, first compound 3.16 µM); 37.9% (second compound 0.1 µM, first compound 10 µM). The viability, T/C was 104% (second compound 0.316 µM, first compound 0.0316 µM); 86.5% (second compound 0.316 µM, first compound 0.1 µM); 109% (second compound 0.316 µM, first compound 0.316 µM); 59.4% (second compound 0.316 µM, first compound 1 µM); 47.9% (second compound 0.316 µM, first compound 3.16 µM); 39.5% (second compound 0.316 µM, first compound 10 µM). Also, the viability, T/C is, setting by setting: (second compound 1 µM, first compound 0.0316 µM) 124%; (second compound 1 µM, first compound 0.1 µM) 127%; (second compound 1 µM, first compound 0.316 µM) 90.3%; (second compound 1 µM, first compound 1 µM) 63%; (second compound 1 µM, first compound 3.16 µM) 51.3%; (second compound 1 µM, first compound 10 µM) 40%. For the same molecule, the viability, T/C is, setting by setting: (second compound 3.16 µM, first compound 0.0316 µM) 113%; (second compound 3.16 µM, first compound 0.1 µM) 110%; (second compound 3.16 µM, first compound 0.316 µM) 113%; (second compound 3.16 µM, first compound 1 µM) 85%; (second compound 3.16 µM, first compound 3.16 µM) 70.3%; (second compound 3.16 µM, first compound 10 µM) 25.3%. In addition, the viability, T/C is 127% (second compound 10 µM, first compound 0.0316 µM); 102% (second compound 10 µM, first compound 0.1 µM); 108% (second compound 10 µM, first compound 0.316 µM); 71.2% (second compound 10 µM, first compound 1 µM); 67.6% (second compound 10 µM, first compound 3.16 µM); 49.9% (second compound 10 µM, first compound 10 µM).
